Reference: US10329270B2, “Heteroaryl compounds as BTK inhibitors and uses thereof” (Merck Patent GmbH, priority 2013, dated 2019)

Biological target: T1, full-length human BTK (Homo sapiens, UniProt Q06187)
T1 construct: 2.5× stocks of full-length human BTK (08-080); purchased CarnaBio USA, Inc., Natick, Mass; 08-080
Experiment: Assay A: BTK IC50 Enzyme Assay (microfluidic off-chip mobility shift kinase assay)
Format: biochemical
Details: not given
Protocol: Assay A: BTK IC50 Enzyme Assay
The following describes a microfluidic, off-chip mobility shift kinase assay used to measure inherent potency of compounds against BTK enzyme. Compounds described by embodiments of the present invention were assayed using this protocol and the data from the same is recorded in Table 2 within the column labeled: “Time Dependent BTK Enzyme Assay IC50”.
Stopped reactions were monitored at −2 PSI, −3000 V/−700 V in a LabChip 3000 plate reader from Caliper Life Sciences, a PerkinElmer Company (Hopkinton, Mass.), and the activity was measured by off-chip mobility shift assay measuring the charge/mass difference between substrate and product resulting from peptide phosphorilation. IC50 and efficacy were determined by plotting log [Inhibitor] vs. % Activity in GeneData Screener (Basel, Switzerland). […] I<1 uM and II>1 uM.

T1 sequence (Q06187 whole entry): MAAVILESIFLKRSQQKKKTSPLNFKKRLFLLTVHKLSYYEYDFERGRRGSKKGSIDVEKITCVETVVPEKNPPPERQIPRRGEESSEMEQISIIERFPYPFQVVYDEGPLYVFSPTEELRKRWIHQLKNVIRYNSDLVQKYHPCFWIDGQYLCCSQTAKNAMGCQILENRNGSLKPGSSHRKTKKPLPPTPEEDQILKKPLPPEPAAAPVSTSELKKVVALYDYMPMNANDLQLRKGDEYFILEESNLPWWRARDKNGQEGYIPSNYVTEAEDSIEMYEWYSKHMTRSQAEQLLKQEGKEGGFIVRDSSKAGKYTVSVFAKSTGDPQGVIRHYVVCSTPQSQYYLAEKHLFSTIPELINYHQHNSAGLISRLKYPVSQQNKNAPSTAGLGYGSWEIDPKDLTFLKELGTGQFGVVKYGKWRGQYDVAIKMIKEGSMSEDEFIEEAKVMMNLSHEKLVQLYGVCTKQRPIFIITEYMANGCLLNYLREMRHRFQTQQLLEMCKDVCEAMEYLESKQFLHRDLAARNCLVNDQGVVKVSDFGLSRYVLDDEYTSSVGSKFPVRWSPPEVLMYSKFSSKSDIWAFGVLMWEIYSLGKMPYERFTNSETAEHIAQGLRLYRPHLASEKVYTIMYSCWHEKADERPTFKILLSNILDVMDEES

`C=CC(=O)N1CCC(F)(CNc2ncc(C(N)=O)c(Oc3ccc(Oc4ccccc4)cc3)n2)CC1` [Compound 194, 2-(((1-acryloyl-4-fluoropiperidin-4-yl)methyl)amino)-4-(4-phenoxyphenoxy)pyrimidine-5-carboxamide] showed an IC50 of 100 to 1000 nM.

Same assay, conditions: full-length human BTK, kinKDR peptide substrate, incubated 90 min at 27 C; read-out: Assay A (Time Dependent BTK Enzyme Assay IC50)

`CN(C)C/C=C/C(=O)N[C@H]1C[C@@H](Nc2ncc(C(N)=O)c(N)n2)C1` [Compound 162, 4-Amino-2-[3-(4-dimethylamino-but-2-enoylamino)-cyclobutylamino]-pyrimidine-5-carboxylic acid amide] and `CN(C)C/C=C/C(=O)N[C@@H]1CCN(c2ncc(C(N)=O)c(N)n2)C1` [Compound 146, 4-Amino-2-[(R)-3-((E)-4-dimethylamino-but-2-enoylamino)-pyrrolidin-1-yl]-pyrimidine-5-carboxylic acid amide] cannot be ordered by IC50: > 5000 nM for the first, > 5000 nM for the second.

`C=CC(=O)N1CCCC(Nc2cnc(Oc3ccc(Oc4cccc(F)c4)cc3)c(C(N)=O)c2)C1` (stereo not shown) [Compound 251] and `C=CC(=O)N1CCCC(Nc2cnc(Oc3ccc(Oc4ccccc4)cc3)c(C(N)=O)c2)C1` (stereo not shown) [Compound 223, 5-(1-Acryloyl-piperidin-3-ylamino)-2-(4-phenoxy-phenoxy)-nicotinamide] fall in the same range of IC50: 100 to 1000 nM for the first, 100 to 1000 nM for the second.

First: C=CC(=O)N[C@H]1CCN(c2ccc(C(N)=O)c(Oc3ccc(Oc4cccc(C(F)(F)F)c4)cc3)n2)C1 [Compound 82, (S)-6-(3-acrylamidopyrrolidin-1-yl)-2-(4-(3-(trifluoromethyl)phenoxy)phenoxy)nicotinamide]
Second: C=CC(=O)N[C@H]1CCN(c2ccc(C(N)=O)c(Oc3ccc(Oc4ccc(C)cc4)cc3)n2)C1 [Compound 85, (S)-6-(3-acrylamidopyrrolidin-1-yl)-2-(4-(p-tolyloxy)phenoxy)nicotinamide]
The IC50 of the first is lower: < 100 nM for the first, 100 to 1000 nM for the second.

First: C=CC(=O)N1CCN(c2ccc(C(N)=O)c(Nc3ccc(C)nc3)n2)CC1 [Compound 34]
Second: C=CC(=O)N1CCN(c2ccc(C(N)=O)c(N(C)c3cccc(C)c3)n2)CC1 [Compound 58, 6-(4-Acryloyl-piperazin-1-yl)-2-(methyl-m-tolyl-amino)-nicotinamide]
The IC50 of the first is lower: < 100 nM for the first, 100 to 1000 nM for the second. The first is the more potent here.

Compared with `C/C=C/C(=O)N1CCC(Nc2cnc(Oc3ccc(Oc4cccc(F)c4)cc3)c(C(N)=O)c2)CC1` [Compound 230, 5-[1-((E)-But-2-enoyl)-piperidin-4-ylamino]-2-[4-(3-fluoro-phenoxy)-phenoxy]-nicotinamide], `C/C=C/C(=O)NC1CCCN(c2cnc(Oc3ccc(Oc4ccccc4)cc3)c(C(N)=O)c2)C1` (stereo not shown) [Compound 213, 3-((E)-But-2-enoylamino)-6′-(4-phenoxy-phenoxy)-3,4,5,6-tetrahydro-2H-[1,3′]bipyridinyl-5′-carboxylic acid amide] is higher in IC50: 1000 to 5000 nM for the first, > 5000 nM for the second. The first is the more potent here.

`N#C/C(=C\C1CC1)C(=O)N1C[C@@H]2C[C@H]1CN2c1ccc(C(N)=O)c(Oc2ccc(Oc3ccccc3)cc2)n1` [Compound 190, 6-((1S,4S)-5-((E)-2-cyano-3-cyclopropylacryloyl)-2,5-diazabicyclo[2.2.1]heptan-2-yl)-2-(4-phenoxyphenoxy)nicotinamide] and `N#C/C(=C\C1CC1)C(=O)N1C[C@@H]2C[C@H]1CN2c1ncc(C(N)=O)c(Oc2ccc(Oc3ccccc3)cc2)n1` [Compound 210, 2-((1S,4S)-5-((E)-2-cyano-3-cyclopropylacryloyl)-2,5-diazabicyclo[2.2.1]heptan-2-yl)-4-(4-phenoxyphenoxy)pyrimidine-5-carboxamide] fall in the same range of IC50: 1000 to 5000 nM for the first, 1000 to 5000 nM for the second.

Compared with `C=CC(=O)N[C@H]1CCN(c2ccc(C(N)=O)c(Nc3ccc(Oc4ccccc4)cc3)n2)C1` [Compound 54, 6-((S)-3-Acryloylamino-pyrrolidin-1-yl)-2-(4-phenoxy-phenylamino)-nicotinamide], `C=CC(=O)N[C@H]1CCN(c2ccc(C(N)=O)c(Oc3ccc(OCc4ccccc4)cc3)n2)C1` [Compound 90, (S)-6-(3-acrylamidopyrrolidin-1-yl)-2-(4-(benzyloxy)phenoxy)nicotinamide] is higher in IC50: < 100 nM for the first, 100 to 1000 nM for the second.

First: C=CC(=O)N1CCC2(CCN(c3cnc(Oc4ccc(Oc5ccccc5)cc4)c(C(N)=O)c3)C2)C1 (stereo not shown) [Compound 224, 5-(7-Acryloyl-2,7-diaza-spiro[4.4]non-2-yl)-2-(4-phenoxy-phenoxy)-nicotinamide]
Second: C=CC(=O)N1CCC[C@@H](c2cnc(Oc3ccc(Oc4ccccc4)cc3)c(C(N)=O)c2)C1 [Compound 125, (S)-5-(1-acryloylpiperidin-3-yl)-2-(4-phenoxyphenoxy)nicotinamide]
The IC50 of the first is higher: 100 to 1000 nM for the first, < 100 nM for the second.

`C=CC(=O)N1C2CC1CN(c1ncc(C(N)=O)c(Oc3ccc(Oc4ccccc4)cc3)n1)C2` [Compound 193, 2-(6-acryloyl-3,6-diazabicyclo[3.1.1]heptan-3-yl)-4-(4-phenoxyphenoxy)pyrimidine-5-carboxamide] and `C=CC(=O)N1C[C@@H]2CCC[C@H]1CN(c1ncc(C(N)=O)c(Oc3ccc(Oc4ccccc4)cc3)n1)C2` [Compound 208, 2-((1 S,5R)-9-acryloyl-3,9-diazabicyclo[3.3.2]decan-3-yl)-4-(4-phenoxyphenoxy)pyrimidine-5-carboxamide] fall in the same range of IC50: 100 to 1000 nM for the first, 100 to 1000 nM for the second.

First: C=CC(=O)N1CCC(c2cc(Oc3ccc(OCc4ccccc4)cc3)c(C(N)=O)cn2)C1 (stereo not shown) [Compound 111, 6-(1-acryloylpyrrolidin-3-yl)-4-(4-(benzyloxy)phenoxy)nicotinamide]
Second: C=CC(=O)N1CCC(c2cc(Oc3ccc(NC(=O)c4ccccc4)cc3)c(C(N)=O)cn2)C1 (stereo not shown) [Compound 184, 6-(1-Acryloylpyrrolidin-3-yl)-4-(4-benzamidophenoxy)nicotinamide]
The IC50 of the first is lower: < 100 nM for the first, 1000 to 5000 nM for the second. The first is the more potent here.

First: C=CC(=O)N1CCn2ncc(-c3cnc(C(N)=O)cn3)c2C1 [Compound 137]
Second: C=CC(=O)N1CCN(c2ncc(C(N)=O)c(Oc3ccc(Oc4ccccc4)cc3)n2)C(C)(C)C1 [Compound 151]
The IC50 of the first is higher: > 5000 nM for the first, 100 to 1000 nM for the second.

`C=CC(=O)N1CC=C(c2ccc(C(N)=O)c(Nc3ccc(C(=O)N4CCCCC4)cc3)n2)CC1` [Compound 28, 1′-Acryloyl-6-[4-(piperidine-1-carbonyl)-phenylamino]-1′,2′,3′,6′-tetrahydro-[2,4′]bipyridinyl-5-carboxylic acid amide] and `C=CC(=O)N1CCCC(c2ccc(C(N)=O)c(Nc3ccc(CCN4CCCC4)cc3)n2)C1` (stereo not shown) [Compound 42, 1′-Acryloyl-6-[4-(2-pyrrolidin-1-yl-ethyl)-phenylamino]-1′,2′,3′,4′,5′,6′-hexahydro-[2,3′]bipyridinyl-5-carboxylic acid amide] cannot be ordered by IC50: < 100 nM for the first, < 100 nM for the second.

First: C=CC(=O)N[C@H]1CCN(c2nc(Nc3ccc(N4CCC(F)(F)CC4)cc3)c(F)cc2C(N)=O)C1 [Compound 186, 2-((S)-3-Acryloylamino-pyrrolidin-1-yl)-6-[4-(4,4-difluoro-piperidin-1-yl)-phenylamino]-5-fluoro-nicotinamide formic acid]
Second: C=CC(=O)N[C@H]1CCN(c2ncc(C(N)=O)c(Nc3ccc(C(=O)N4CCOCC4)cc3)n2)C1 [Compound 140, 2-((S)-3-Acryloylamino-pyrrolidin-1-yl)-4-[4-(morpholine-4-carbonyl)-phenylamino]-pyrimidine-5-carboxylic acid amide]
The IC50 of the first is higher: 100 to 1000 nM for the first, < 100 nM for the second.

`C=CC(=O)N1CCC(c2ccc(C(N)=O)c(Nc3ccc(C(=O)N4CCN(C(=O)CCCCNC(=O)OC(C)(C)C)CC4)cc3)n2)CC1` [Compound 19] and `C=CC(=O)N[C@@H]1CCN(c2ccc(C(N)=O)c(Nc3ccc(C(=O)N4CCOCC4)cc3)n2)C1` [Compound 47, 6-((R)-3-Acryloylamino-pyrrolidin-1-yl)-2-[4-(morpholine-4-carbonyl)-phenylamino]-nicotinamide] cannot be ordered by IC50: < 100 nM for the first, < 100 nM for the second.

`C=CC(=O)NC1CCCN(c2ncc(C(N)=O)c(Oc3ccc(Oc4ccccc4)cc3)n2)C1` (stereo not shown) [Compound 204, 2-(3-acrylamidopiperidin-1-yl)-4-(4-phenoxyphenoxy)pyrimidine-5-carboxamide] and `N#CN1CCCC(Nc2ncc(C(N)=O)c(Oc3ccc(Oc4ccccc4)cc3)n2)C1` (stereo not shown) [Compound 239, 2-[(1-cyanopiperidin-3-yl)amino]-4-(4-phenoxyphenoxy)pyrimidine-5-carboxamide] fall in the same range of IC50: 1000 to 5000 nM for the first, 1000 to 5000 nM for the second.

First: C=CC(=O)N[C@H]1CCN(c2cc(Oc3cnn(Cc4ccccc4)c3)c(C(N)=O)cn2)C1 [Compound 115]
Second: C=CC(=O)N[C@H]1CCN(c2ccc(C(N)=O)c(Nc3cncc(C)c3)n2)C1 [Compound 55, 6-((S)-3-Acryloylamino-pyrrolidin-1-yl)-2-(5-methyl-pyridin-3-ylamino)-nicotinamide]
The IC50 of the first is higher: 100 to 1000 nM for the first, < 100 nM for the second. The second is the more potent here.

First: C=CC(=O)N[C@@H]1CCN(c2ccc(C(N)=O)c(N)n2)C1 [Compound 61, 6-((R)-3-Acryloylamino-pyrrolidin-1-yl)-2-amino-nicotinamide]
Second: C=CC(=O)N[C@H]1CCN(c2nc(Nc3ccc(N4CC(C)OC(C)C4)c(F)c3)c(C(N)=O)cc2F)C1 (stereo partly drawn) [Compound 181, 6-((S)-3-Acryloylamino-pyrrolidin-1-yl)-2-[4-(2,6-dimethyl-morpholin-4-yl)-3-fluoro-phenylamino]-5-fluoro-nicotinamide]
The IC50 of the first is higher: 1000 to 5000 nM for the first, < 100 nM for the second. The second is the more potent here.

`C=CC(=O)N1CC[C@@H](N(C)c2ccc(C(N)=O)c(Oc3ccc(Oc4ccccc4)cc3)n2)C1` [Compound 187, 6-[((R)-1-Acryloyl-pyrrolidin-3-yl)-methyl-amino]-2-(4-phenoxy-phenoxy)-nicotinamide] and `C=CC(=O)N1CCC(Nc2ncc(C(N)=O)c(Oc3ccc(Oc4ccccc4)cc3)n2)CC12CCC2` (stereo not shown) [Compound 175, 2-(5-Acryloyl-5-aza-spiro[3.5]non-8-ylamino)-4-(4-phenoxy-phenoxy)-pyrimidine-5-carboxylic acid amide] fall in the same range of IC50: 100 to 1000 nM for the first, 100 to 1000 nM for the second.
